Source: patent US9499550B2 (BRISTOL-MYERS SQUIBB COMPANY, priority 2012, dated 2016)
pEC50: −log10 of the molar value. Where two headings read alike, the source gives them in different places.

Assays:
[1] = system: HCV genotype 1b (Con1) replicon in HUH-7 cells; experiment: HCV replicon luciferase reporter assay, genotype 1b; assay type: cell-based; settings: Hepatitis C virus, Huh-7, 72 h, 3 days incubation
In short: (§1)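 Replicon inhibition for both genotypes was measured as Renilla luciferase signal (EnduRen, 7.5 μM final, 2 h) after 3-day, 37° C exposure of replicon-bearing HUH-7 cells in 4% FCS DMEM, 0.5% DMSO. The 1b construct carries S1179I; the 1a H77 construct carries P1496L and S2204I. Twenty-point, 3-fold dilutions were fitted four-parametrically for EC50, and CC50 was taken from multiplexed Cell Titer-Blue.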

[2] = system: HCV genotype 1a (H77 strain) replicon in HUH-7 cells; experiment: HCV replicon luciferase reporter assay, genotype 1a; assay type: cell-based; settings: Hepatitis C virus, Huh-7, 72 h, 3 days incubation
In short: as §1

[3] = HCV genotype 1b replicon luciferase assay, range class, read-out: LE_1b (EC50, range)
[4] = HCV genotype 1a replicon luciferase assay, range class, read-out: LE_1a (EC50, range)
[5] = HCV genotype 1b replicon luciferase, read-out: LE_1b (EC50, range)
[6] = HCV genotype 1a replicon luciferase, read-out: LE_1a (EC50, range)
[7] = HCV genotype 1b replicon luciferase, read-out: LE_1b (EC50)
[8] = HCV genotype 1a replicon luciferase, read-out: LE_1a (EC50)

SMILES	pEC50 [1, 5]	pEC50 [2, 6]	also measured
C[C@H]1CC/C=C\[C@@H]2C[C@@]2(C(=O)NS(=O)(=O)C2(C)CC2)NC(=O)[C@@H]2C[C@@H](Oc3nc(OCC(F)F)cc4c(Cl)cccc34)CN2C(=O)[C@@H](NC(=O)O[C@H](C)C(F)(F)F)[C@H](C)C1 [Compound 1107, (R)-1,1,1-trifluoropropan-2-yl ((2R,6S,7R,9S,13aS,14aR,16aS,Z)-2-((5-chloro-3-(2,2-difluoroethoxyl)isoquinolin-1-yl)oxy)-7,9-dimethyl-14a-(((1-methylcyclopropyl)sulfonyl)carbamoyl)-5,16-dioxo-1,2,3,5,6,7,8,9,10,11,13a,14,14a,15,16,16a-hexadecahydrocyclopropa[e]pyrrolo[1,2-a][1,4]diazacyclopentadecin-6-yl)carbamate]	–	–	pEC50 [1, 3]: > 8.26; pEC50 [2, 4]: 6.99 to 8.32
COc1ccc2c(O[C@@H]3C[C@H]4C(=O)N[C@]5(C(=O)NS(=O)(=O)C6(C)CC6)C[C@H]5/C=C\CC[C@@H](C)C[C@@H](C)[C@H](NC(=O)OC(C)(C)C(F)(F)F)C(=O)N4C3)nc(OC(C)C)cc2c1 [Compound 3202, 1,1,1-trifluoro-2-methylpropan-2-yl((2R,6S,7R,9R,13aS,14aR,16aS,Z)-2-((3-isopropoxy-6-methoxyisoquinolin-1-yl)oxy)-7,9-dimethyl-14a-(((1-methylcyclopropyl)sulfonyl)carbamoyl)-5,16-dioxo-1,2,3,5,6,7,8,9,10,11,13a,14,14a,15,16,16a-hexadecahydrocyclopropa[e]pyrrolo[1,2-a][1,4]diazacyclopentadecin-6-yl)carbamate]	8.30 to 9.00	8.30 to 9.00	–
COc1ccc2nc(C(C)C)c(O[C@@H]3C[C@H]4C(=O)N[C@]5(C(=O)NS(=O)(=O)C6CC6)C[C@H]5/C=C\CC[C@@H](C)C[C@@H](C)[C@H](NC(=O)OC(C)(C)C(F)(F)F)C(=O)N4C3)nc2c1 [Compound 4317]	–	–	pEC50 ([1]; GETYPE1B, HCV genotype 1b replicon luciferase, read-out: LE_1b (EC50, range)): 8.30 to 9.00; pEC50 ([2]; GETYPE1A, HCV genotype 1a replicon luciferase, read-out: LE_1a (EC50, range)): 8.30 to 9.00
COc1ccc2c(O[C@@H]3C[C@H]4C(=O)N[C@]5(C(=O)NS(=O)(=O)C6CC6)C[C@H]5/C=C\CC[C@@H](C)C[C@@H](C)[C@H](NC(=O)OC(C)(C)C(F)(F)F)C(=O)N4C3)nc(-c3ccc(OC(C)C)cn3)cc2c1 [Compound 5203, 1,1,1-trifluoro-2-methylpropan-2-yl((2R,6S,7R,9R,13aS,14aR,16aS,Z)-14a-((cyclopropylsulfonyl)carbamoyl)-2-((3-(5-isopropoxypyridin-2-yl)-6-methoxyisoquinolin-1-yl)oxy)-7,9-dimethyl-5,16-dioxo-1,2,3,5,6,7,8,9,10,11,13a,14,14a,15,16,16a-hexadecahydrocyclopropa[e]pyrrolo[1,2-a][1,4]diazacyclopentadecin-6-yl)carbamate]	> 8.26	> 8.26	–
C[C@@H]1CC/C=C\[C@@H]2C[C@@]2(C(=O)NS(=O)(=O)C2(C)CC2)NC(=O)[C@@H]2C[C@@H](Oc3nccc4c5c(ccc34)N(C)CCO5)CN2C(=O)[C@@H](NC(=O)O[C@@H]2C[C@@H]3C[C@@H]3C2)[C@H](C)C1 [Compound 5300, (1R,3r,5S)-bicyclo[3.1.0]hexan-3-yl((2R,6S,7R,9R,13aS,14aR,16aS,Z)-7,9-dimethyl-2-((4-methyl-3,4-dihydro-2H-[1,4]oxazino[2,3-f]isoquinolin-7-yl)oxy)-14a-(((1-methylcyclopropyl)sulfonyl)carbamoyl)-5,16-dioxo-1,2,3,5,6,7,8,9,10,11,13a,14,14a,15,16,16a-hexadecahydrocyclopropa[e]pyrrolo[1,2-a][1,4]diazacyclopentadecin-6-yl)carbamate]	> 8.26	> 8.26	–
COc1cc2ccccc2c(O[C@@H]2C[C@H]3C(=O)N[C@]4(C(=O)NS(=O)(=O)C5CC5)C[C@H]4/C=C\CC[C@@H](C)C[C@@H](C)[C@H](NC(=O)OC(C)(C)C(C)(F)F)C(=O)N3C2)n1 [Compound 6036, 3,3-difluoro-2-methylbutan-2-yl((2R,6S,7R,9R,13aS,14aR,16aS,Z)-14a-((cyclopropylsulfonyl)carbamoyl)-2-((3-methoxyisoquinolin-1-yl)oxy)-7,9-dimethyl-5,16-dioxo-1,2,3,5,6,7,8,9,10,11,13a,14,14a,15,16,16a-hexadecahydrocyclopropa[e]pyrrolo[1,2-a][1,4]diazacyclopentadecin-6-yl)carbamate]	> 8.26	> 8.26	pEC50 [1, 7]: 9.42; pEC50 [2, 8]: 9.28
COc1nnc(O[C@@H]2C[C@H]3C(=O)N[C@]4(C(=O)NS(=O)(=O)C5CC5)C[C@H]4/C=C\CC[C@@H](C)C[C@@H](C)[C@H](NC(=O)OC(C)(C)C)C(=O)N3C2)c2ccccc12 [Compound 5004, tert-butyl ((2R,6S,7R,9R,13aS,14aR,16aS,Z)-14a-((cyclopropylsulfonyl)carbamoyl)-2-((4-methoxyphthalazin-1-yl)oxy)-7,9-dimethyl-5,16-dioxo-1,2,3,5,6,7,8,9,10,11,13a,14,14a,15,16,16a-hexadecahydrocyclopropa[e]pyrrolo[1,2-a][1,4]diazacyclopentadecin-6-yl)carbamate]	> 8.26	> 8.26	–
COc1ccc2c(O[C@@H]3C[C@H]4C(=O)N[C@]5(C(=O)NS(=O)(=O)C6CC6)C[C@H]5/C=C\CC[C@@H](C)C[C@@H](C)[C@H](NC(=O)OC(C)(C)C(F)(F)F)C(=O)N4C3)nccc2c1F [Compound 3150, 1,1,1-trifluoro-2-methylpropan-2-yl((2R,6S,7R,9R,13aS,14aR,16aS,Z)-14a-((cyclopropylsulfonyl)carbamoyl)-2-((5-fluoro-6-methoxyisoquinolin-1-yl)oxy)-7,9-dimethyl-5,16-dioxo-1,2,3,5,6,7,8,9,10,11,13a,14,14a,15,16,16a-hexadecahydrocyclopropa[e]pyrrolo[1,2-a][1,4]diazacyclopentadecin-6-yl)carbamate]	–	–	pEC50 [1, 3]: > 8.26; pEC50 [2, 4]: > 8.26
COc1ccc2c(O[C@@H]3C[C@H]4C(=O)N[C@]5(C(=O)NS(=O)(=O)C6(C)CC6)C[C@H]5/C=C\CC[C@@H](C)C[C@@H](C)[C@H](NC(=O)OC(C)(C)C(C)(F)F)C(=O)N4C3)nc(-c3ccc4c(c3)OCCO4)cc2c1 [Compound 5237, 3,3-difluoro-2-methylbutan-2-yl((2R,6S,7R,9R,13aS,14aR,16aS,Z)-2-((3-(2,3-dihydrobenzo[b][1,4]dioxin-6-yl)-6-methoxyisoquinolin-1-yl)oxy)-7,9-dimethyl-14a-(((1-methylcyclopropyl)sulfonyl)carbamoyl)-5,16-dioxo-1,2,3,5,6,7,8,9,10,11,13a,14,14a,15,16,16a-hexadecahydrocyclopropa[e]pyrrolo[1,2-a][1,4]diazacyclopentadecin-6-yl)carbamate]	> 8.26	> 8.26	–
CCCOc1cnc(O[C@@H]2C[C@H]3C(=O)N[C@]4(C(=O)NS(=O)(=O)C5(C)CC5)C[C@H]4/C=C\CC[C@H](C)C[C@@H](C)[C@H](NC(=O)OCC4(C)CC4)C(=O)N3C2)c2ccccc12 [Compound 5082, (1-methylcyclopropyl)methyl ((2R,6S,7R,9S,13aS,14aR,16aS,Z)-7,9-dimethyl-14a-(((1-methylcyclopropyl)sulfonyl)carbamoyl)-5,16-dioxo-2-((4-propoxyisoquinolin-1-yl)oxy)-1,2,3,5,6,7,8,9,10,11,13a,14,14a,15,16,16a-hexadecahydrocyclopropa[e]pyrrolo[1,2-a][1,4]diazacyclopentadecin-6-yl)carbamate]	6.99 to 8.32	< 7.06	pEC50 [1, 7]: 7.34; pEC50 [2, 8]: 6.70
C[C@H]1CC/C=C\[C@@H]2C[C@@]2(C(=O)NS(=O)(=O)C2(C)CC2)NC(=O)[C@@H]2C[C@@H](Oc3nccc4c5c(ccc34)OCCO5)CN2C(=O)[C@@H](NC(=O)O[C@H](C)C(F)(F)F)[C@H](C)C1 [Compound 5252, (R)-1,1,1-trifluoropropan-2-yl ((2R,6S,7R,9S,13aS,14aR,16aS,Z)-2-((2,3-dihydro-[1,4]dioxino[2,3-f]isoquinolin-7-yl)oxy)-7,9-dimethyl-14a-(((1-methylcyclopropyl)sulfonyl)carbamoyl)-5,16-dioxo-1,2,3,5,6,7,8,9,10,11,13a,14,14a,15,16,16a-hexadecahydrocyclopropa[e]pyrrolo[1,2-a][1,4]diazacyclopentadecin-6-yl)carbamate]	> 8.26	6.99 to 8.32	pEC50 [1, 7]: 8.39; pEC50 [2, 8]: 7.82
CCOc1ccc2c(O[C@@H]3C[C@H]4C(=O)N[C@]5(C(=O)NS(=O)(=O)C6(C)CC6)C[C@H]5/C=C\CC[C@H](C)C[C@@H](C)[C@H](NC(=O)OC(C)(C)C(F)(F)F)C(=O)N4C3)ncc(OC)c2c1 [Compound 3139, 1,1,1-trifluoro-2-methylpropan-2-yl((2R,6S,7R,9S,13aS,14aR,16aS,Z)-2-((6-ethoxy-4-methoxyisoquinolin-1-yl)oxy)-7,9-dimethyl-14a-(((1-methylcyclopropyl)sulfonyl)carbamoyl)-5,16-dioxo-1,2,3,5,6,7,8,9,10,11,13a,14,14a,15,16,16a-hexadecahydrocyclopropa[e]pyrrolo[1,2-a][1,4]diazacyclopentadecin-6-yl)carbamate]	–	–	pEC50 [1, 3]: > 8.26; pEC50 [2, 4]: > 8.26
